Laboratory results taken from patent publication US7560558B2, “Compound having TGFβ inhibitory activity and medicinal composition containing the same” (Kirin Beer Kabushiki Kaisha, priority 2002, dated 2009).
Structures can show the parent of a compound that is named as a salt.

Tested on: TGFβ signal
Assay: TGFβ signal inhibitory activity, (SBE)4-Luc luciferase reporter in A549 cells
Format: cell-based, human
Conditions: TGFβ-1 2 ng/ml, A549 (SBE)4-Luc; for inhibition at 3 µM / inhibition at 10 µM: Homo sapiens, A549, 4 h; for TGFβ inhibition, %: 4 hr
Description: The TGFβ signal inhibitory activity of compounds according to the present invention was evaluated according to the method described in J. Boil. Chem., 273, 21145-21152 (1998). Specifically, a luciferase gene driving by four tandem binding sequences of Smad2/3, which are TGFβ signal transfer factors was used as a reporter gene ((SBE)4-Luc). This reporter gene was introduced into human lung cancer epithelial cells (A549) (available from ATCC) to establish a stable cell line expressing its gene. A test compound and TGFβ-1 (2 ng/ml) were added to the cells, and the mixture was cultured for 4 hr. Compounds according to the present invention synthesized in the above working examples were used as the test compound. After the culture, the luciferase activity of cells was measured by a chemiluminescence method (Steady Glo (trademark) luciferase assay system available from Promega). Likewise, the luciferase activity was measured for control cells, that is, cells which had been cultured with the addition of TGFβ only, and cells which had been cultured without the addition of TGFβ and the test compound. The TGFβ inhibition rate (%) was calculated based on the results of measurement according to the following equation: TGFβ inhibition rate (%)=(A−B)/(A−C)×100 wherein A, B and C have the following respective meanings: A: luciferase activity in the case where TGFβ1 was added and the test compound was not added (relative luciferase unit); B: luciferase activity in the case where both TGFβ1 and the test compound were added (relative luciferase unit); and C: luciferase activity in the case where neither TGFβ1 nor the test compound was added (relative luciferase unit). The test was carried out for each of a test compound concentration of 3 μM and a test compound concentration of 10 μM. For given test compounds, the test was further carried out for a test compound concentration of 1 μM.

| SMILES | inhibition at 3 µM (test compound 3 μM) | inhibition at 10 µM (test compound 10 μM) | TGFβ inhibition, % (test compound 3 μM) | TGFβ inhibition, % (test compound 10 μM) |
| --- | --- | --- | --- | --- |
| COc1cc2nccc(Oc3ccc(C)cc3C(=O)c3ccccc3)c2cc1OC [Compound 71, {2-[(6,7-Dimethoxy-4-quinolyl)oxy]-5-methylphenyl}-(phenyl)methanone] | 79% | 100% |  |  |
| COc1cc2nccc(Oc3ccc(C)cc3C(=O)c3ccccc3)c2cc1OC.Cl [Compound 72, {2-[(6,7-Dimethoxy-4-quinolyl)oxy]-5-methylphenyl}-(phenyl)methanone hydrochloride] |  |  | 98% | 100% |
| COc1ccc(Oc2ccnc3cc(OC)c(OC)cc23)c(C(C)=O)c1.Cl [Compound 177, 1-[2-(6,7-Dimethoxy-quinolin-4-yloxy)-5-methoxy-phenyl]-ethanone hydrochloride] |  |  | 94% | 100% |
| COc1cc2nccc(Oc3cc(C)c(C)cc3C(=O)c3ccccc3)c2cc1OC [Compound 76, {2-[(6,7-Dimethoxy-4-quinolyl)oxy]-4,5-dimethylphenyl}-(phenyl)methanone hydrochloride] | 95% | 100% |  |  |
| COc1cc2c(Oc3cc4ccccc4nc3C)ccnc2cc1OCCN1CCOCC1 [Compound 365, 6-Methoxy-4-(2-methyl-quinolin-3-yloxy)-7-(2-morpholin-4-yl-ethoxy)-quinoline] | 100% | 100% |  |  |
| COc1ccc(Oc2ccnc3cc(OC)c(OC)cc23)c(C(C)=O)c1 [Compound 36, 1-{2-[(6,7-Dimethoxy-4-quinolyl)oxy]-5-methoxyphenyl}-1-ethanone] | 95% | 100% |  |  |
| COc1cc2nccc(Oc3ccccc3C(=O)c3ccccc3)c2cc1OC [Compound 62, {2-[(6,7-Dimethoxy-4-quinolyl)oxy]-phenyl}(phenyl)-methanone] | 43% | 85% |  |  |
| COc1cc2nccc(Oc3ccc(Cl)cc3C(=O)c3ccccc3)c2cc1OC [Compound 68, {5-Chloro-2-[(6,7-dimethoxy-4-quinolyl)oxy]phenyl}-(phenyl)methanone] | 89% | 100% |  |  |
| COc1cc2c(Oc3cc4ccccc4nc3C)ccnc2cc1OCCN1CCOCC1.Cl.Cl.Cl [Compound 366, 6-Methoxy-4-(2-methyl-quinolin-3-yloxy)-7-(2-morpholin-4-yl-ethoxy)-quinoline hydrochloride] |  |  | 100% | 100% |
| COc1cc2c(Oc3cc(C)c(C)cc3C(C)=O)ccnc2cc1OCCCN1CCOCC1.Cl.Cl [Compound 320, 1-{2-[6-Methoxy-7-(3-morpholin-4-yl-propoxy)-quinolin-4-yloxy]-4,5-dimethyl-phenyl}-ethanone hydrochloride] |  |  | 100% | 100% |
| C=CCO/N=C(\C)c1cc(C)c(C)cc1Oc1ccnc2cc(OC)c(OC)cc12 [Compound 197, 1-[2-(6,7-Dimethoxy-quinolin-4-yloxy)-4,5-dimethyl-phenyl]-ethanone o-allyl-oxime] | 40% |  |  |  |
| COc1cc2nccc(Oc3ccc(F)nc3I)c2cc1OC [Compound 211, 4-(6-Fluoro-2-iodo-pyridin-3-yloxy)-6,7-dimethoxy-quinoline] | 87% | 100% |  |  |
| COc1cc2nccc(Oc3ccccc3C(=O)c3ccccc3)c2cc1OC.Cl [Compound 63, {2-[(6,7-Dimethoxy-4-quinolyl)oxy]-phenyl}(phenyl)-methanone hydrochloride] |  |  | 57% | 91% |
| COc1cc2nccc(Oc3cc(C)c(C)cc3/C(C)=N/O)c2cc1OC [Compound 195, 1-[2-(6,7-Dimethoxy-quinolin-4-yloxy)-4,5-dimethyl-phenyl]-ethanone oxime] |  | 100% |  |  |
| COc1cc2nccc(Oc3ccc(Cl)cc3C(=O)c3ccccc3)c2cc1OC.Cl [Compound 69, {5-Chloro-2-[(6,7-dimethoxy-4-quinolyl)oxy]phenyl}-(phenyl)methanone hydrochloride] |  |  | 100% | 100% |
| COc1cc2c(Oc3cc(C)c(C)cc3C(C)=O)ccnc2cc1OCCCN1CCOCC1 [Compound 319, 1-{2-[6-Methoxy-7-(3-morpholin-4-yl-propoxy)-quinolin-4-yloxy]-4,5-dimethyl-phenyl}-ethanone] |  | 100% |  |  |
